According to patent US10934302B1, “SHP2 phosphatase inhibitors and methods of use thereof” (Relay Therapeutics, Inc., priority 2018, dated 2021):

Molecular target: SHP2 (Homo sapiens (Human), UniProt Q06124)
Assay: SHP2 allosteric inhibition assay (DiFMUP prompt fluorescence)
Type: biochemical
Settings: 0.25 nM SHP2 activated with 0.5 μM peptide IRS1_pY1172(dPEG8)pY1222; substrate DiFMUP

Structure (SMILES) | IC50
NC1c2ccccc2C[C@]12CC[C@H](c1ccc(SCC3CC3)nc1)CC2 (single isomer, unassigned) [Example 281, (1s, 3'S, 4R)-4-{6-[(cyclopropylmethyl)sulfanyl]pyridin-3-yl}-1′,3′-dihydrospiro[cyclohexane-1,2′-inden]-3′-amine] | 50 to 1000 nM
Cn1cnc2ccnc(N3CCC4(CC3)Cc3ccccc3[C@H]4N)c21 [Example 183] | > 10000 nM
N[C@H]1c2c(F)ccc(F)c2CC12CCN(c1cnc3c(N4CCCc5ncccc54)n[nH]c3n1)CC2 [Example 62] | ≤ 50 nM
Cc1nccc(Sc2n[nH]c3nc(N4CCC5(CC4)Cc4ccccc4[C@H]5N)cnc23)c1Cl [Example 90] | 50 to 1000 nM
Cc1nc(N2CCC3(CC2)Cc2ccccc2[C@H]3N)cnc1SC1CCCC1 [Example 250, (3S)-1′-[5-(cyclopentylsulfanyl)-6-methylpyrazin-2-yl]-1,3-dihydrospiro[indene-2,4′-piperidin]-3-amine] | ≤ 50 nM
N[C@@H]1c2ccccc2CC12CCN(c1cnc3c(N4CCCc5nc(-c6ncco6)ccc54)n[nH]c3n1)CC2 [Example 37] | ≤ 50 nM
N[C@H]1c2ccccc2CC12CCN(c1cnc3c(N4CCCc5nc(-c6ccn[nH]6)ccc54)n[nH]c3n1)CC2 [Example 3] | ≤ 50 nM
N[C@@H]1c2ccccc2CC12CCN(c1cnc(SC3CCOCC3)cn1)CC2 [Example 185, (S)-1′-(5-((tetrahydro-2H-pyran-4-yl)thio)pyrazin-2-yl)-1,3-dihydrospiro[indene-2,4′-piperidin]-1-amine] | 1000 to 10000 nM
Cn1ccc2c(c1=O)CCCN2c1n[nH]c2nc(N3CCC4(CC3)Cc3c(F)cccc3[C@H]4N)cnc12 [Example 53] | ≤ 50 nM
CN1CCN(c2n[nH]c3nc(N4CCC5(CC4)Cc4ccccc4[C@H]5N)cnc23)c2ccc(C#N)cc21 [Example 43] | ≤ 50 nM
Nc1nccc(Nc2n[nH]c3nc(N4CCC5(CC4)Cc4ccccc4[C@H]5N)cnc23)c1Cl [Example 138, (S)—N4-(6-(1-amino-1,3-dihydrospiro[indene-2,4′-piperidin]-1′-yl)-1H-pyrazolo[3,4-b]pyrazin-3-yl)-3-chloropyridine-2,4-diamine] | ≤ 50 nM
N[C@H]1c2ccccc2C[C@]12CC[C@@H](c1cnc(SCC3CC3)cn1)CC2 [Example 285, (1r, 4r)-4-{5-[(cyclopropylmethyl)sulfanyl]pyrazin-2-yl}-1′,3′-dihydrospiro[cyclohexane-1,2′-inden]-3′-amine] | ≤ 50 nM
Cc1nc2c(N3CCCCC3)n[nH]c2nc1N1CCC2(CC1)Cc1ccccc1[C@H]2N [Example 152, (3S)-1′-[5-methyl-3-(piperidin-1-yl)-1H-pyrazolo[3,4-b]pyrazin-6-yl]-1,3-dihydrospiro[indene-2,4′-piperidin]-3-amine] | ≤ 50 nM
Cn1ncc2c(N3CCC4(CC3)Cc3ccccc3[C@H]4N)ncnc21 [Example 181] | 1000 to 10000 nM
N[C@@H]1c2ccccc2CC12CCN(c1ncc(Sc3cccc(Cl)c3Cl)c(=O)[nH]1)CC2 [Example 261, 2-[(3S)-3-amino-1,3-dihydrospiro[indene-2,4′-piperidin]-1′-yl]-5-[(2,3-dichlorophenyl)sulfanyl]-3,4-dihydropyrimidin-4-one] | ≤ 50 nM

Further lines, results first:

IC50 | Structure (SMILES)
≤ 50 nM | N[C@@H]1c2ccccc2CC12CCN(c1cnc(Cc3ccnc(Cl)c3Cl)cn1)CC2 [Example 157, (3S)-1′-{5-[(2,3-dichloropyridin-4-YL)methyl]pyrazin-2-yl}-1,3-dihydrospiro[indene-2,4′-piperidin]-3-amine]
≤ 50 nM | N[C@@H]1c2cnccc2CC12CCN(c1cnc3c(N4CCCc5ncccc54)n[nH]c3n1)CC2 [Example 50]
≤ 50 nM | COc1ccc2c(n1)CC1(CCN(c3cnc4c(N5CCCc6ncccc65)n[nH]c4n3)CC1)[C@@H]2N [Example 108]
≤ 50 nM | Nc1nccc(Sc2cnc(N3CCC4(CC3)Oc3ccccc3[C@H]4N)cn2)c1Cl [Example 177]
≤ 50 nM | Cc1nc2c(ccn2-c2cccc3ncccc23)nc1N1CCC2(CC1)Cc1ccccc1[C@H]2N [Example 194, (3S)-1′-[3-methyl-5-(quinolin-5-yl)-5H-pyrrolo[2,3-b]pyrazin-2-yl]-1,3-dihydrospiro[indene-2,4′-piperidin]-3-amine]
≤ 50 nM | N[C@@H]1c2ccccc2CC12CCN(C(=O)c1csc(-c3c(Cl)cccc3Cl)n1)CC2 [Example 286, (1S)-1′-[2-(2,6-dichlorophenyl)-1,3-thiazole-4-carbonyl]-1,3-dihydrospiro[indene-2,4′-piperidin]-1-amine]
≤ 50 nM | N[C@@H]1c2ccccc2OC12CCN(c1cnc(Sc3ccnc(Cl)c3F)cn1)CC2 [Example 95]
≤ 50 nM | Cn1ccc2c(c1=O)CCCN2c1n[nH]c2nc(N3CCC4(CC3)Oc3c(F)cccc3[C@H]4N)cnc12 [Example 55]
≤ 50 nM | N[C@H]1c2ccccc2CC12CCN(c1cnc3c(-c4ccncc4F)n[nH]c3n1)CC2 [Example 75]
≤ 50 nM | Nc1nccc(-c2n[nH]c3nc(N4CCC5(CC4)Cc4ccccc4[C@H]5N)cnc23)c1F [Example 78, (S)-1′-(3-(2-amino-3-fluoropyridin-4-yl)-1H-pyrazolo[3,4-b]pyrazin-6-yl)-1,3-dihydrospiro[indene-2,4′-piperidin]-1-amine]
≤ 50 nM | N[C@@H]1c2ccccc2CC12CCN(c1cnc3c(Oc4cc[nH]c(=O)c4Cl)n[nH]c3n1)CC2 [Example 135, 4-({6-[(3S)-3-amino-1,3-dihydrospiro[indene-2,4′-piperidin]-1′-yl]-1H-pyrazolo[3,4-b]pyrazin-3-yl}oxy)-3-chloro-1,2-dihydropyridin-2-one]
≤ 50 nM | N[C@H]1c2ccccc2CC12CCN(c1cnc3c(-c4cc5cc[nH]c5cc4F)n[nH]c3n1)CC2 [Example 73]
≤ 50 nM | Nc1nccc(Sc2cnc(N3CCC4(CC3)Cc3ccccc3[C@@H]4N)cn2)c1Cl [Example 80, (R)-1′-(5-((2-amino-3-chloropyridin-4-yl)thio)pyrazin-2-yl)-1,3-dihydrospiro[indene-2,4′-piperidin]-1-amine]
≤ 50 nM | N[C@@H]1c2ccc(F)cc2OC12CCN(c1cnc(SCC3CC3)cn1)CC2 [Example 240]
≤ 50 nM | Cc1nc2c(N3CCCc4nc(-c5cnn(C)c5)ccc43)n[nH]c2nc1N1CCC2(CC1)Cc1ccccc1[C@H]2N [Example 149, (3S)-1′-{5-methyl-3-[6-(1-methyl-1H-pyrazol-4-yl)-1,2,3,4-tetrahydro-1,5-naphthyridin-1-yl]-1H-pyrazolo[3,4-b]pyrazin-6-yl}-1,3-dihydrospiro[indene-2,4′-piperidin]-3-amine]
≤ 50 nM | Cc1cnc(CO)c(N2CCC3(CC2)Cc2ccccc2[C@H]3N)n1 (single isomer, unassigned) [Example 122]
≤ 50 nM | N[C@@H]1c2ccccc2CC12CCN(c1cnc(SC3CC3)cn1)CC2 [Example 241, (S)-1′-(5-(cyclopropylthio)pyrazin-2-yl)-1,3-dihydrospiro[indene-2,4′-piperidin]-1-amine]
≤ 50 nM | Nc1nccc(Oc2n[nH]c3nc(N4CCC5(CC4)Cc4ccccc4[C@@H]5N)cnc23)c1Cl (single isomer, unassigned) [Example 136]
